These results are taken from patent US20250263404A1, “AMINOPYRIDINES AS ACTIVATORS OF PI3 KINASE” (UCL Business Ltd, priority 2021, published 2025).

Experiment [1] deals with PIP3 production in A549 cells. As to the kind of experiment: TIRF microscopy of PIP3 reporter in A549 cells. The experiment is classed as cell-based, human. The text has this:
Class I PI3Ks convert the PtdIns(4,5)P2 lipid in the plasma membrane to PtdIns(3,4,5)P3 (or PIP3) which is converted to PtdIns(3,4)P2 by the action of 5-phosphatases. The inventors therefore tested whether stimulation of cells with 1938 led to the generation of PIP3 and PI(3,4)P2 using live imaging in cells expressing fluorescent biosensors that selectively bind these lipids. […] This PIP3 peak was followed by the generation of membrane-associated PI(3,4)P2 (FIG. 3aiii), with a timing in line with the known mechanism of cellular generation of PI(3,4)P2 from PIP3 by the action of 5-phosphatases. Similar kinetics of PIP3 and PI(3,4)P2 production have previously been reported in HeLa cells stimulated with insulin. […]
Image analyses of total reporter intensities were performed with the Fiji open source image analysis package. The region of interest (ROI) corresponding to the footprint of the individual cell across time points were defined using minimal intensity projection to select only pixels present across all time points, following prior subtraction of camera noise (rolling ball method, radius=500 pixels) and xy drift correction, intensity levels over time were measured. […] All other quantifications were performed using the open source software R/RStudio. […]

Experiment [2] deals with PI3Kα (Homo sapiens, UniProt P42336). As to the kind of experiment: pAKT S473 ELISA in A549 cells (PI3Kα activation). It is filed as cell-based. Details: endogenous in cells; host or cells: A549. Particulars: A549 cells. Here is the method: EC50 values were determined by quantifying phosphorylation on S473 residues of Akt in A549 human adenocarcinoma cells by ELISA (enzyme linked immunoadsorbent assay, R&D Systems, DYC887BE). A549 cells were seeded into 96-well plates (50,000 cells/well) in DMEM supplemented with 10% foetal bovine serum and 1% penicillin-streptomyocin. Following 24 h in culture cells were starved for 24 h in serum-free DMEM before 15 minute treatment with a concentration response curve of compounds. Experimental compounds were diluted in DMSO into […] 1:3 concentration response curves in polypropylene V-bottom plates (SLS MIC9050). Concentration response curves were diluted to a 3× stock in serum-free DMEM. Standard 8-point concentration response curves were performed at 50, 16.7, 5.6, 1.9, 0.6, 0.2, 0.07, 0.02 μM and serum-free DMEM containing 0.5% DMSO was used as a negative control. […] A549 cells were seeded at 50,000 cells per well in 96-well plates in DMEM (10% FBS+1% P/S). The next day cells were washed once with PBS before addition of serum-free DMEM for 24 h. On the day of treatment cells, were incubated in fresh serum-free DMEM prior to treatment. Compounds solubilised to 10 mM in DMSO were diluted 1:3 in an 8-point concentration response curve in DMSO. Concentration response curves were diluted in serum-free DMEM by transfer into intermediate plates using a BRAVO liquid handler (Agilent). Intermediate plates were then used to treat cell plates using the BRAVO liquid handler. Compound concentration response curves had atop concentration of 50 μM and a final well concentration of 0.5% DMSO. Cell plates were treated for 15 min at 37° C., 5% CO2 before being washed with ice-cold PBS and lysed in lysis buffer 6 (R&D Systems #895561) and freezing at −80° C. Levels of pAKT-S473 were determined using the phospho-AKT (S473) pan-specific Duoset IC ELISA (R&D Systems #DYC887BE) in 96-well white high-binding plates (Corning #3922) according to manufacturer's instructions. Endpoint luminescence was measured using a Sense (Hidex) platereader. […] Data were transformed and EC50 data were determined by variable slope (4 parameters) non-linear regression using Prism 7 (Graphpad).
PI3Kα, sequence (P42336 whole entry): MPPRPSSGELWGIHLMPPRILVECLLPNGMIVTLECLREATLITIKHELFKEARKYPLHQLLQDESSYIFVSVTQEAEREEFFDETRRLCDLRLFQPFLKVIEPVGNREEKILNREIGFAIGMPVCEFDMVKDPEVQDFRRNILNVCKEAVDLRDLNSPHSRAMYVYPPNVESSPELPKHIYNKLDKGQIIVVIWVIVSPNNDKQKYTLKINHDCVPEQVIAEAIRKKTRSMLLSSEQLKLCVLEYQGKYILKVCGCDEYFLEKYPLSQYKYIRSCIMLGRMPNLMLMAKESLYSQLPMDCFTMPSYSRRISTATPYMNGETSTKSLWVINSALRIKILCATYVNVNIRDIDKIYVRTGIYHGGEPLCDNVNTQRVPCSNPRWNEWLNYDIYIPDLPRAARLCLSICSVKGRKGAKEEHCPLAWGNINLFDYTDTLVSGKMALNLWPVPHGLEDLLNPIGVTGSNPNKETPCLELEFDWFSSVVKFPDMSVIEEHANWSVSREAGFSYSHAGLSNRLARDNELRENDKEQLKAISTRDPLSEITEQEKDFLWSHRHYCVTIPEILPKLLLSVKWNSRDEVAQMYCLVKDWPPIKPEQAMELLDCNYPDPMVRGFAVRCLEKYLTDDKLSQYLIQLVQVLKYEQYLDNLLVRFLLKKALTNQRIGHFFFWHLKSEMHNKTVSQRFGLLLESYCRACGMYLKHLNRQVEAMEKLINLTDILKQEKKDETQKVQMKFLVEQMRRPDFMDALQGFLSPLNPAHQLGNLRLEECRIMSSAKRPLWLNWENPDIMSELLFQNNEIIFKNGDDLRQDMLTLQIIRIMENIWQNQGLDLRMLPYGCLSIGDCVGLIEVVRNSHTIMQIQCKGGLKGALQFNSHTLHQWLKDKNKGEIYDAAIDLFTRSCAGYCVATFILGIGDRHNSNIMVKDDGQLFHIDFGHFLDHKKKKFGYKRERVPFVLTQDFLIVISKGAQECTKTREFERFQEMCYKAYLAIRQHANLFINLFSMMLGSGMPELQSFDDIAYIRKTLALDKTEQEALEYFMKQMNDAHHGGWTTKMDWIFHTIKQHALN
PI3Kα, sequence (P27986 whole entry partner): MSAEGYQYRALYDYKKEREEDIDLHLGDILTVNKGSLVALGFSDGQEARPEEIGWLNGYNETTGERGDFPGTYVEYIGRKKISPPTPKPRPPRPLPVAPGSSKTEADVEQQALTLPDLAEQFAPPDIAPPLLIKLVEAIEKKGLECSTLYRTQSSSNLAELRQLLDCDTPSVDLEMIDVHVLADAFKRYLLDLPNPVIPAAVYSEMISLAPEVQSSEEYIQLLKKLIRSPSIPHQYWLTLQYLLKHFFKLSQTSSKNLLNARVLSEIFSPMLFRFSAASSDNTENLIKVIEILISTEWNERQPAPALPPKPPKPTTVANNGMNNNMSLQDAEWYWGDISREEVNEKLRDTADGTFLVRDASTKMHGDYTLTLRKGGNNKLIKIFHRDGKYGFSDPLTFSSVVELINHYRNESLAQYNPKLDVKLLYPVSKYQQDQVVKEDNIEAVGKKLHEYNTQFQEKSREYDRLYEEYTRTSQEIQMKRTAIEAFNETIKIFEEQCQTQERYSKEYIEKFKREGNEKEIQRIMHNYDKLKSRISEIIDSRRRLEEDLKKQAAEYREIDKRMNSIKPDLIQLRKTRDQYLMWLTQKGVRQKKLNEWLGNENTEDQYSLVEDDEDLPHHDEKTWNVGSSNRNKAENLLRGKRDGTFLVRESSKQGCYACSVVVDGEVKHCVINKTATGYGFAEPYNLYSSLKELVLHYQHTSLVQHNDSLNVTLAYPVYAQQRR

In the case of `CCN1CCN(c2ccc(Nc3cc(Nc4cccc5c4N(C(C)=O)CC5)ccn3)cc2)CC1` [Example 1938], in experiment [1] (PIK3CA-null A549 cells), the “PIP3 signal in PIK3CA-null A549 cells” value is listed as “did not increase”. The “time to plasma membrane-associated PIP3 production” value in experiment [1] (serum-starved A549 cells) was “less than 3 min”. Besides, in experiment [2] (EC50 for induction of pAKT, 15 min treatment), the 50% effective concentration (EC50) is 2 to 4 µM. Also, the maximum response (Emax) in experiment [2] (read-out: AKT phosphorylation, % of Emax of 1 μM insulin, doses of 5-10 μM 1938) is around 200%.
